Experimental findings from patent US20240158446A1, “CYCLIC COMPOUND HAVING SELECTIVE INHIBITORY ACTION ON KRAS OVER HRAS AND NRAS” (CHUGAI SEIYAKU KABUSHIKI KAISHA, priority 2021, published 2024) are described below.

Test [1] has as its target GDP-bound NRAS wild-type protein (Homo sapiens, UniProt P01111). Put plainly: Binding to NRAS by surface plasmon resonance (SPR), Single Cycle Kinetics. The note with it: for NRAS/KRAS (ratio of KD value for NRAS to KD value for KRAS): GDP-bound NRAS wild-type protein vs GDP-bound KRAS wild-type protein. (In SPR one partner is held on a chip, and binding of the other changes the refractive index at the surface.)

Test [2] addresses GDP-bound HRAS wild-type protein (Homo sapiens, UniProt P01112). Put plainly: Binding to HRAS by surface plasmon resonance (SPR), Single Cycle Kinetics. The note with it: for HRAS/KRAS (ratio of KD value for HRAS to KD value for KRAS): GDP-bound HRAS wild-type protein vs GDP-bound KRAS wild-type protein.
Test [3] has as its target GDP-bound KRAS wild-type protein (Homo sapiens, UniProt P01116). In words: Binding to KRAS by surface plasmon resonance (SPR), Single Cycle Kinetics. To be noted: GDP-bound KRAS wild-type protein, read-out: KRAS KD.
The subject of test [4] is human lung cancer strain NCI-H441.
[5] abbreviates: SPR, Single Cycle Kinetics, 1:1 binding model.

In general, Kd refers to the equilibrium constant for the complex coming apart.

Where two headings read alike, the source gives them in different places.
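Throughout, for IC50: cell proliferation inhibition after four days measured by CellTiter-Glo.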

Sequence of GDP-bound KRAS wild-type protein (P01116 whole entry): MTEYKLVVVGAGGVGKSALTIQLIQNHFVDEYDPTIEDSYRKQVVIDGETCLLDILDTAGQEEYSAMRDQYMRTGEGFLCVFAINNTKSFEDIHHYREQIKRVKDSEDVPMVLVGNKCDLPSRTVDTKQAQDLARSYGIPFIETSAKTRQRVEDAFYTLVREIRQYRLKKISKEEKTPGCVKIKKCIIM
Sequence of GDP-bound NRAS wild-type protein (P01111 whole entry): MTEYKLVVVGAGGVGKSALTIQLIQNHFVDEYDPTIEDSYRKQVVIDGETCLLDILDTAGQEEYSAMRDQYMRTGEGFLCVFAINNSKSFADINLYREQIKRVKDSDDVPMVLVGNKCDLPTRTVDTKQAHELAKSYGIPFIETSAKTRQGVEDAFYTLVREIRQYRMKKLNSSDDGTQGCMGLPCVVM
Sequence of GDP-bound HRAS wild-type protein (P01112 whole entry): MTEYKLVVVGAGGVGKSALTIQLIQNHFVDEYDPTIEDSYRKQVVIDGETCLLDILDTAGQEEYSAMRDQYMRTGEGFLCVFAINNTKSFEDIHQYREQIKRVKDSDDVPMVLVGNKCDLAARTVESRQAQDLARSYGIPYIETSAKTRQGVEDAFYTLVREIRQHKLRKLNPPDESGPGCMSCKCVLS

Take `CC[C@H](C)[C@@H]1NC(=O)[C@H](CC)N(C)C(=O)C[C@@H](C(=O)N(C)C)N(C)C(=O)[C@H](C2CCCC2)N(C)C(=O)C2(CCC2)NC(=O)[C@@H]2C[C@@H](C(F)(F)F)CN2C(=O)[C@H](CCc2cc(F)c(C(F)(F)F)c(F)c2)NC(=O)CN(C)C(=O)[C@H](CC2CCC(F)(F)CC2)N2CC/C=C\C[C@@H](C2=O)N(C)C(=O)CN(C)C1=O` [PP1451, (2S,8S,12R,14S,20S,23S,27S,30S,36S,38Z)-20-cyclopentyl-2-[(4,4-difluorocyclohexyl)methyl]-8-[2-[3,5-difluoro-4-(trifluoromethyl)phenyl]ethyl]-27-ethyl-N,N,4,19,22,26,32,35-octamethyl-30-[(1S)-1-methylpropyl]-3,6,9,15,18,21,25,28,31,34,42-undecaoxo-12-(trifluoromethyl)spiro[1,4,7,10,16,19,22,26,29,32,35-undecazatricyclo[34.5.1.0^10,14]dotetracont-38-ene-17,1′-cyclobutane]-23-carboxamide]: in test [1] (SPR, KD ratio class), the “NRAS/KRAS (ratio of KD value for NRAS to KD value for KRAS)” value was “A (a compound having 10 or more and less than 20 is denoted as A)”. Also, in test [2] (SPR, KD ratio class), the “HRAS/KRAS (ratio of KD value for HRAS to KD value for KRAS)” value was “A (a compound having 10 or more and less than 20 is denoted as A)”. In test [3] (setting [5]), the equilibrium dissociation constant (Kd) stood at 0.14 nM. The molecule further returned an IC50 in test [4] of 61.1 nM.
In the case of `CCO[C@@H]1C[C@H]2C(=O)NC3(CCCC3)C(=O)N(C)[C@@H](C3CCCC3)C(=O)N(C)[C@H](C(=O)N(C)C)CC(=O)N(C)[C@@H](CC)C(=O)N[C@@H]([C@@H](C)CC)C(=O)N(C)CC(=O)N(C)[C@H]3C/C=C\CCN(C3=O)[C@@H](Cc3ccc(C(F)(F)F)cc3)C(=O)N(C)CC(=O)N[C@@H](CCc3cc(F)c(C(F)(F)F)c(F)c3)C(=O)N2C1` [PP1276, (2S,8S,12R,14S,20S,23S,27S,30S,36S,38Z)-20-cyclopentyl-8-[2-[3,5-difluoro-4-(trifluoromethyl)phenyl]ethyl]-12-ethoxy-27-ethyl-N,N,4,19,22,26,32,35-octamethyl-30-[(1S)-1-methylpropyl]-3,6,9,15,18,21,25,28,31,34,42-undecaoxo-2-[[4-(trifluoromethyl)phenyl]methyl]spiro[1,4,7,10,16,19,22,26,29,32,35-undecazatricyclo[34.5.1.0^10,14]dotetracont-38-ene-17,1′-cyclopentane]-23-carboxamide], in test [1] (SPR, KD ratio class), the “NRAS/KRAS (ratio of KD value for NRAS to KD value for KRAS)” value was “A (a compound having 10 or more and less than 20 is denoted as A)”. Also, in test [2] (SPR, KD ratio class), the “HRAS/KRAS (ratio of KD value for HRAS to KD value for KRAS)” value is “B (a compound having 3 or more and less than 10 is denoted as B)”. Moreover, in test [3] (setting [5]), the equilibrium dissociation constant (Kd) is 0.066 nM. The IC50 in test [4] worked out at 20.8 nM.
Consider `CC[C@H](C)[C@@H]1NC(=O)[C@@H]2CCCCCc3ccc(cc3)C[C@@H](C(=O)N(C)CC(=O)N[C@@H](CCc3ccc(C(F)(F)F)c(OC)c3)C(=O)N3C[C@H](OC(C)C)C[C@H]3C(=O)NC3(CC(C)(C)C3)C(=O)N(C)[C@@H](C3CCCC3)C(=O)N(C)[C@H](C(=O)N(C)C)CC(=O)N2C)N2CC/C=C\C[C@@H](C2=O)N(C)C(=O)CN(C)C1=O` [PP3072], for which the “NRAS/KRAS (ratio of KD value for NRAS to KD value for KRAS)” value in test [1] (SPR) is “A (a compound having 10 or more and less than 20 is denoted as A)”. Besides, the “ratio of the KD value with respect to GDP-bound NRAS wild-type protein to the KD value with respect to KRAS” value in test [1] (SPR, KD(NRAS)/KD(KRAS)) was “A (a compound having 10 or more and less than 20 is denoted as A)”. Moreover, the “HRAS/KRAS (ratio of KD value for HRAS to KD value for KRAS)” value in test [2] (SPR) is “B (a compound having 3 or more and less than 10 is denoted as B)”. In test [2] (SPR, KD(HRAS)/KD(KRAS)), the “ratio of the KD value with respect to GDP-bound HRAS wild-type protein to the KD value with respect to KRAS” value is “B (a compound having 3 or more and less than 10 is denoted as B)”. In addition, in test [3] (SPR, Single Cycle Kinetics), the dissociation constant (Kd) was 0.048 nM. Moreover, the IC50 in test [4] (read-out: NCI-H441 cell proliferation inhibitory activity, 50% proliferation inhibitory concentration (IC50 value), NCI-H441, four days, CellTiter-Glo) came out at 2.6 nM.
Take `CCO[C@@H]1C[C@H]2C(=O)NC3(CCC3)C(=O)N(C)[C@@H](C3CCCC3)C(=O)N(C)[C@H](C(=O)N3CCOCC3)CC(=O)N(C)[C@@H](Cc3cccc(C#N)c3)C(=O)N[C@@H]([C@@H](C)CC)C(=O)N(C)CC(=O)N(C)[C@H]3CCCCCN(C3=O)[C@@H](Cc3ccc(F)cc3)C(=O)N(C)CC(=O)N[C@@H](CCc3cc(F)c(C(F)(F)F)c(F)c3)C(=O)N2C1` [PP1186]: in test [1] (SPR), the “NRAS/KRAS (ratio of KD value for NRAS to KD value for KRAS)” value was “B (a compound having 3 or more and less than 10 is denoted as B)”. In addition, the “HRAS/KRAS (ratio of KD value for HRAS to KD value for KRAS)” value in test [2] (SPR) was “B (a compound having 3 or more and less than 10 is denoted as B)”. Moreover, the Kd in test [3] (SPR, Single Cycle Kinetics) was 0.094 nM. Moreover, in test [4], the IC50 was found to be 54.4 nM.
With `CCCC[C@H]1C(=O)N[C@@H]([C@@H](C)CC)C(=O)N(C)CC(=O)N(C)[C@H]2C/C=C\CCN(C2=O)[C@@H](Cc2ccc(C(F)(F)F)cc2)C(=O)N(C)CC(=O)N[C@@H](CCc2cc(F)c(C(F)(F)F)c(F)c2)C(=O)N2C[C@H](OCC)C[C@H]2C(=O)NC2(CCC2)C(=O)N(C)[C@@H](C2CCCC2)C(=O)N(C)[C@H](C(=O)N2CCCC2)CC(=O)N1C` [PP1396, (2S,8S,12R,14S,20S,23S,27S,30S,36S,38Z)-27-butyl-20-cyclopentyl-8-[2-[3,5-difluoro-4-(trifluoromethyl)phenyl]ethyl]-12-ethoxy-4,19,22,26,32,35-hexamethyl-30-[(1S)-1-methylpropyl]-23-(pyrrolidine-1-carbonyl)-2-[[4-(trifluoromethyl)phenyl]methyl]spiro[1,4,7,10,16,19,22,26,29,32,35-undecazatricyclo[34.5.1.0^10,14]dotetracont-38-ene-17,1′-cyclobutane]-3,6,9,15,18,21,25,28,31,34,42-undecone], the “NRAS/KRAS (ratio of KD value for NRAS to KD value for KRAS)” value in test [1] (SPR, KD ratio class) is recorded as “AA (a compound having 20 or more is denoted as AA)”. Also, the “HRAS/KRAS (ratio of KD value for HRAS to KD value for KRAS)” value in test [2] (SPR, KD ratio class) was “A (a compound having 10 or more and less than 20 is denoted as A)”. Besides, in test [3] (setting [5]), the Kd stood at 0.14 nM. In test [4], this molecule displayed an IC50 of 19.4 nM.
For the molecule `CCO[C@@H]1C[C@H]2C(=O)NC3(CCCC3)C(=O)N(C)[C@@H](C3CCCC3)C(=O)N(C)[C@H](C(=O)N(C)C)CC(=O)N(C)[C@@H](CC)C(=O)N[C@@H]([C@@H](C)CC)C(=O)N(C)CC(=O)N(C)[C@H]3CC[C@@H](C)CN(C3=O)[C@@H](Cc3ccc(C(F)(F)F)cc3)C(=O)N(C)CC(=O)N[C@@H](CCc3cc(F)c(C(F)(F)F)c(F)c3)C(=O)N2C1` [PP1370], the “NRAS/KRAS (ratio of KD value for NRAS to KD value for KRAS)” value in test [1] (SPR, KD ratio class) is “C (A compound having a KD ratio of 0.1 or more and less than 3 is denoted as C)”. Moreover, the “HRAS/KRAS (ratio of KD value for HRAS to KD value for KRAS)” value in test [2] (SPR, KD ratio class) was “C (A compound having a KD ratio of 0.1 or more and less than 3 is denoted as C)”. Besides, the Kd in test [3] (setting [5]) was 0.057 nM. In test [4], this molecule displayed an IC50 of 2.3 nM.
On to `CCC[C@H]1C(=O)N[C@@H]([C@@H](C)CC)C(=O)N(C2CC2)CC(=O)N(C)[C@H]2C/C=C\CCN(C2=O)[C@@H](Cc2ccc(C)cc2)C(=O)N(C)CC(=O)N[C@@H](CCc2cc(F)c(C(F)(F)F)c(F)c2)C(=O)N2C[C@H](OC3CCC3)C[C@H]2C(=O)NC2(CC(C)(C)C2)C(=O)N(C)[C@@H](C2CCCC2)C(=O)N(C)[C@H](C(=O)N(C)C)CC(=O)N1C` [PP2614], for which, in test [1] (SPR KD ratio NRAS/KRAS, class symbols), the “NRAS/KRAS (ratio of KD value with respect to GDP-bound NRAS wild-type protein to KD value with respect to KRAS)” value was “A (a compound having 10 or more and less than 20 is denoted as A)”. For the same molecule, the “HRAS/KRAS (ratio of KD value with respect to GDP-bound HRAS wild-type protein to KD value with respect to KRAS)” value in test [2] (SPR KD ratio HRAS/KRAS, class symbols) was “A (a compound having 10 or more and less than 20 is denoted as A)”. Besides, the Kd in test [3] (SPR Single Cycle Kinetics, 1:1 binding model) was determined as 0.27 nM. In addition, the IC50 in test [4] is 12.1 nM.
As to `CCO[C@@H]1C[C@H]2C(=O)NC3(CC(C)(C)C3)C(=O)N(C)[C@@H](C(CC)CC)C(=O)N(C)[C@H](C(=O)N(C)C)CC(=O)N(C)[C@@H](CC3CC3)C(=O)N[C@@H]([C@@H](C)CC)C(=O)N(C)CC(=O)N(C)[C@H]3C/C=C\CCN(C3=O)[C@@H](CC3CCC(F)(F)CC3)C(=O)N(C)CC(=O)N[C@@H](CCc3ccc(C(F)(F)F)c(OC)c3)C(=O)N2C1` [PP2480], the “NRAS/KRAS (ratio of KD value for NRAS to KD value for KRAS)” value in test [1] (SPR) is “A (a compound having 10 or more and less than 20 is denoted as A)”. For the same molecule, in test [2] (SPR), the “HRAS/KRAS (ratio of KD value for HRAS to KD value for KRAS)” value was “A (a compound having 10 or more and less than 20 is denoted as A)”. Further, the equilibrium dissociation constant (Kd) in test [3] (SPR, Single Cycle Kinetics) is 0.84 nM. The molecule also registered an IC50 in test [4] of 30.5 nM.
In the case of `CCO[C@@H]1C[C@H]2C(=O)NC3(CCC3)C(=O)N(C)[C@@H](C3CCCC3)C(=O)N(C)[C@H](C(=O)N(C)C)CC(=O)N(C)[C@@H](CC(C)C)C(=O)N[C@@H]([C@@H](C)CC)C(=O)N(C)CC(=O)N(C)[C@H]3C/C=C\CCN(C3=O)[C@@H](Cc3ccc(C(F)(F)F)cc3)C(=O)N(C)CC(=O)N[C@@H](CCc3ccc(C(F)(F)F)c(OC)c3)C(=O)N2C1` [PP1245, (2S,8S,12R,14S,20S,23S,27S,30S,36S,38Z)-20-cyclopentyl-12-ethoxy-27-isobutyl-8-[2-[3-methoxy-4-(trifluoromethyl)phenyl]ethyl]-N,N,4,19,22,26,32,35-octamethyl-30-[(1S)-1-methylpropyl]-3,6,9,15,18,21,25,28,31,34,42-undecaoxo-2-[[4-(trifluoromethyl)phenyl]methyl]spiro[1,4,7,10,16,19,22,26,29,32,35-undecazatricyclo[34.5.1.0^10,14]dotetracont-38-ene-17,1′-cyclobutane]-23-carboxamide], the “NRAS/KRAS (ratio of KD value for NRAS to KD value for KRAS)” value in test [1] (SPR, KD ratio class) was “A (a compound having 10 or more and less than 20 is denoted as A)”. Also, the “HRAS/KRAS (ratio of KD value for HRAS to KD value for KRAS)” value in test [2] (SPR, KD ratio class) was “B (a compound having 3 or more and less than 10 is denoted as B)”. The dissociation constant (Kd) in test [3] (setting [5]) turned out to be 0.06 nM. The same molecule showed an IC50 in test [4] of 3.7 nM.
